Tests used:
[1] = Liquid; for Normal boiling temperature: Ebulliometric method (Recirculating still); for mass density: 298.15 K, 101.3 kPa
[2] = excess molar enthalpy (molar enthalpy of mixing); xn = mol fraction of the nth substance listed; details: 101.3 kPa, Liquid, Flow calorimetry

OCCO [1,2-ethanediol]
Details	Normal boiling temperature [°C]
[1]	197.23

OCCO [1,2-ethanediol] + CC(C)O
[2]
Details	excess molar enthalpy [kcal/mol]
298.15 K, x1 = 0.0678	0.0521
298.15 K, x1 = 0.1326	0.0876
298.15 K, x1 = 0.1951	0.112
298.15 K, x1 = 0.2555	0.128
298.15 K, x1 = 0.3138	0.138
298.15 K, x1 = 0.3702	0.143
298.15 K, x1 = 0.4248	0.145
298.15 K, x1 = 0.4776	0.144
298.15 K, x1 = 0.5287	0.14
298.15 K, x1 = 0.5782	0.134
298.15 K, x1 = 0.6262	0.127
298.15 K, x1 = 0.6727	0.118
298.15 K, x1 = 0.7178	0.107
298.15 K, x1 = 0.7617	0.0951
298.15 K, x1 = 0.8042	0.0815
298.15 K, x1 = 0.8455	0.0677
298.15 K, x1 = 0.8857	0.0523
298.15 K, x1 = 0.9248	0.036
298.15 K, x1 = 0.9628	0.0185
308.15 K, x1 = 0.0675	0.0506
308.15 K, x1 = 0.1325	0.0874
308.15 K, x1 = 0.1953	0.112
308.15 K, x1 = 0.2558	0.128
308.15 K, x1 = 0.3143	0.138
308.15 K, x1 = 0.3708	0.144
308.15 K, x1 = 0.4254	0.145
308.15 K, x1 = 0.4783	0.144
308.15 K, x1 = 0.5294	0.141
308.15 K, x1 = 0.589	0.135
308.15 K, x1 = 0.627	0.127
308.15 K, x1 = 0.6735	0.118
308.15 K, x1 = 0.7186	0.107
308.15 K, x1 = 0.7624	0.0959
308.15 K, x1 = 0.8049	0.0828
308.15 K, x1 = 0.8462	0.0682
308.15 K, x1 = 0.8863	0.0527
308.15 K, x1 = 0.9252	0.0366
308.15 K, x1 = 0.9631	0.0188
323.15 K, x1 = 0.0678	0.0469
323.15 K, x1 = 0.1326	0.0815
323.15 K, x1 = 0.1951	0.105
323.15 K, x1 = 0.2555	0.121
323.15 K, x1 = 0.3138	0.131
323.15 K, x1 = 0.3702	0.138
323.15 K, x1 = 0.4247	0.14
323.15 K, x1 = 0.4775	0.14
323.15 K, x1 = 0.5286	0.136
323.15 K, x1 = 0.5781	0.131
323.15 K, x1 = 0.6261	0.124
323.15 K, x1 = 0.6727	0.116
323.15 K, x1 = 0.7178	0.105
323.15 K, x1 = 0.7617	0.0939
323.15 K, x1 = 0.8042	0.0816
323.15 K, x1 = 0.8456	0.0673
323.15 K, x1 = 0.8858	0.0522
323.15 K, x1 = 0.9248	0.036
323.15 K, x1 = 0.9628	0.0189

OCCO [1,2-ethanediol] + CCCCO
excess molar enthalpy [kcal/mol], [2]
Details	298.15 K	308.15 K	323.15 K
x1 = 0.0798	–	–	0.0775
x1 = 0.0803	0.0708	0.0745	–
x1 = 0.1548	0.115	0.122	–
x1 = 0.1552	–	–	0.124
x1 = 0.225	0.144	0.152	–
x1 = 0.2253	–	–	0.159
x1 = 0.2912	0.161	0.171	–
x1 = 0.2914	–	–	0.179
x1 = 0.3537	0.172	0.181	–
x1 = 0.354	–	–	0.191
x1 = 0.4129	0.176	0.186	–
x1 = 0.4131	–	–	0.197
x1 = 0.4691	0.177	0.187	–
x1 = 0.4692	–	–	0.199
x1 = 0.5223	–	0.185	–
x1 = 0.5224	0.175	–	0.196
x1 = 0.573	0.17	0.18	0.19
x1 = 0.6211	–	0.172	0.184
x1 = 0.6212	0.163	–	–
x1 = 0.6671	0.154	0.163	0.172
x1 = 0.7108	–	–	0.16
x1 = 0.7109	0.143	0.152	–
x1 = 0.7527	0.132	0.139	0.147
x1 = 0.7926	0.117	0.124	0.132
x1 = 0.8308	0.103	0.108	–
x1 = 0.8309	–	–	0.116
x1 = 0.8675	0.0857	0.0913	0.0944
x1 = 0.9026	0.0679	0.0715	0.0749
x1 = 0.9362	0.0466	0.0485	–
x1 = 0.9363	–	–	0.0521
x1 = 0.9686	0.0243	0.026	–
x1 = 0.9687	–	–	0.0267

OCCO [1,2-ethanediol] + CCCO
excess molar enthalpy [kcal/mol], [2]
Details	298.15 K	308.15 K	323.15 K
x1 = 0.0644	–	–	0.0566
x1 = 0.0664	0.0498	0.0535	–
x1 = 0.13	0.0849	0.0912	0.0966
x1 = 0.1915	0.109	0.117	0.125
x1 = 0.2511	0.126	0.135	0.144
x1 = 0.3089	0.137	0.147	0.156
x1 = 0.3648	0.144	0.152	0.163
x1 = 0.4191	0.147	0.155	–
x1 = 0.4192	–	–	0.167
x1 = 0.4718	0.147	0.156	0.167
x1 = 0.5229	0.144	0.153	0.163
x1 = 0.5725	0.138	0.148	0.158
x1 = 0.6207	0.132	0.141	0.15
x1 = 0.6676	0.124	0.132	0.141
x1 = 0.7131	0.114	0.121	0.129
x1 = 0.7574	0.102	0.109	0.116
x1 = 0.8005	0.0897	0.0942	0.101
x1 = 0.8425	0.0741	0.0784	0.0838
x1 = 0.8833	–	–	0.0651
x1 = 0.8834	0.0581	0.0611	–
x1 = 0.9231	–	–	0.0448
x1 = 0.9232	0.04	0.0426	–
x1 = 0.9619	0.0209	0.0218	0.0229

OCCO [1,2-ethanediol] + CCO
excess molar enthalpy [kcal/mol], [2]
Details	298.15 K	308.15 K	323.15 K
x1 = 0.0526	0.0266	0.0283	0.0307
x1 = 0.1045	0.0475	0.0506	0.0547
x1 = 0.1561	0.0636	0.0678	0.0734
x1 = 0.2075	0.0758	0.0807	0.0875
x1 = 0.2587	0.084	0.0904	0.0976
x1 = 0.3096	0.0907	0.0971	0.105
x1 = 0.3604	0.0945	0.101	0.109
x1 = 0.4109	0.0962	0.103	0.111
x1 = 0.4611	0.0962	0.103	0.111
x1 = 0.5112	0.0945	0.101	0.108
x1 = 0.561	0.091	0.0971	0.105
x1 = 0.6106	0.0858	0.0915	0.0986
x1 = 0.66	0.0793	0.085	0.0911
x1 = 0.7092	0.0716	0.0765	0.0822
x1 = 0.7581	0.063	0.067	0.0724
x1 = 0.8069	0.0528	0.0562	0.0601
x1 = 0.8554	0.0412	0.0432	0.0472
x1 = 0.9037	0.0277	0.0305	0.0329
x1 = 0.9518	0.0147	0.0156	0.0169

OCCO [1,2-ethanediol] + CO
[2]
Details	excess molar enthalpy [kcal/mol]
298.15 K, x1 = 0.037	0.00564
298.15 K, x1 = 0.0748	0.0106
298.15 K, x1 = 0.1137	0.0147
298.15 K, x1 = 0.1538	0.0184
298.15 K, x1 = 0.195	0.0216
298.15 K, x1 = 0.2374	0.024
298.15 K, x1 = 0.2811	0.0263
298.15 K, x1 = 0.3262	0.0274
298.15 K, x1 = 0.3726	0.0287
298.15 K, x1 = 0.4206	0.0289
298.15 K, x1 = 0.4701	0.0289
298.15 K, x1 = 0.5212	0.0282
298.15 K, x1 = 0.574	0.027
298.15 K, x1 = 0.6286	0.0251
298.15 K, x1 = 0.6851	0.0226
298.15 K, x1 = 0.7436	0.0197
298.15 K, x1 = 0.8042	0.0157
298.15 K, x1 = 0.867	0.0114
298.15 K, x1 = 0.9321	0.00591
308.15 K, x1 = 0.0372	0.00594
308.15 K, x1 = 0.0752	0.0113
308.15 K, x1 = 0.1143	0.0158
308.15 K, x1 = 0.1545	0.0196
308.15 K, x1 = 0.1958	0.0234
308.15 K, x1 = 0.2384	0.0258
308.15 K, x1 = 0.2822	0.0282
308.15 K, x1 = 0.3274	0.0298
308.15 K, x1 = 0.3739	0.0307
308.15 K, x1 = 0.4219	0.0314
308.15 K, x1 = 0.4715	0.0311
308.15 K, x1 = 0.5226	0.0302
308.15 K, x1 = 0.5754	0.0285
308.15 K, x1 = 0.6299	0.0269
308.15 K, x1 = 0.6863	0.0243
308.15 K, x1 = 0.7447	0.021
308.15 K, x1 = 0.8051	0.0169
308.15 K, x1 = 0.8676	0.0121
308.15 K, x1 = 0.9325	0.00632
323.15 K, x1 = 0.0371	0.00686
323.15 K, x1 = 0.075	0.0127
323.15 K, x1 = 0.114	0.0179
323.15 K, x1 = 0.154	0.0219
323.15 K, x1 = 0.1953	0.0258
323.15 K, x1 = 0.2378	0.0291
323.15 K, x1 = 0.2815	0.0316
323.15 K, x1 = 0.3266	0.0332
323.15 K, x1 = 0.3732	0.0343
323.15 K, x1 = 0.4211	0.035
323.15 K, x1 = 0.4706	0.0344
323.15 K, x1 = 0.5218	0.034
323.15 K, x1 = 0.5746	0.0322
323.15 K, x1 = 0.6292	0.0298
323.15 K, x1 = 0.6856	0.0271
323.15 K, x1 = 0.744	0.0231
323.15 K, x1 = 0.8046	0.0185
323.15 K, x1 = 0.8673	0.013
323.15 K, x1 = 0.9323	0.00668

CCCCO [butan-1-ol]
[1]
Details	Normal boiling temperature [°C]	mass density [kg/m3]
–	117.71	805.9

CCC(C)O (stereo not drawn) [butan-2-ol] + OCCO
excess molar enthalpy [kcal/mol], [2]
Details	298.15 K	308.15 K	323.15 K
x2 = 0.081	0.0655	0.0583	0.0422
x2 = 0.1557	0.109	0.101	0.0777
x2 = 0.226	0.136	0.128	0.103
x2 = 0.2923	0.154	0.145	0.12
x2 = 0.3549	0.164	0.155	0.131
x2 = 0.4142	0.167	0.161	0.137
x2 = 0.4703	0.167	0.161	0.139
x2 = 0.5235	0.165	0.159	0.139
x2 = 0.5741	0.16	0.154	0.136
x2 = 0.6222	0.152	0.148	0.132
x2 = 0.6681	0.144	0.14	0.126
x2 = 0.7117	0.133	0.13	0.117
x2 = 0.7535	0.122	0.119	0.108
x2 = 0.7933	0.107	0.106	0.0979
x2 = 0.8314	0.093	0.0915	0.0851
x2 = 0.868	0.0777	0.0769	0.071
x2 = 0.9029	0.0603	0.0602	0.055
x2 = 0.9365	0.0421	0.0412	0.0373
x2 = 0.9687	0.0223	0.0221	0.0192

CCO [ethanol]
[1]
Details	Normal boiling temperature [°C]	mass density [kg/m3]
–	78.26	785.2

CO [methanol]
[1]
Details	Normal boiling temperature [°C]	mass density [kg/m3]
–	64.47	786.4

CCCO [propan-1-ol]
[1]
Details	Normal boiling temperature [°C]	mass density [kg/m3]
–	97.16	799.8

CC(C)O [propan-2-ol]
[1]
Details	Normal boiling temperature [°C]	mass density [kg/m3]
–	82.20	781.1
